The record followed here is patent publication US9832994B2, “Thymol and totarol antibacterial composition” (COLGATE-PALMOLIVE COMPANY, priority 2011, dated 2017).

One assay relates to E. coli. The assay can be described thus: Minimum Inhibition Concentration (MIC) and Fractional Inhibitory Concentration (FIC) against E. coli. The format is cell-based. The conditions noted are these: Escherichia coli, single active, tryptic soy broth, 96 well plate, 16-24 hours at 37° C. On the procedure:
(§1) Minimum Inhibition Concentration (MIC) Serial dilutions of the active are combined with tryptic soy broth and 0.1 optical density of bacteria in a 96 well plate. The optical density of the mixture is measured after 16-24 hours at 37° C. An increase in optical density represents bacterial growth. The plate is analyzed to determine the minimum concentration needed to inhibit growth of bacteria. Numbers are reported in ppm. The MIC values are determined for thymol and totarol against E. Coli and S. aureus. The MIC dose response assay is conducted just as the MIC, however, one active's concentration is kept constant and the other active's concentration follows a two-fold serial dilution. Fractional Inhibition Concentration (FIC) The MIC values are also determined for thymol in the presence of totarol to determine the Fractional Inhibitory Concentration (FIC). This calculation accounts for the fractional activity of thymol and totarol within a MIC test. [formula] such that: [table]

Another assay has as its system S. aureus. Nature of the assay: Minimum Inhibition Concentration (MIC) and Fractional Inhibitory Concentration (FIC) against S. aureus. The conditions noted are these: Staphylococcus aureus, single active, tryptic soy broth, 96 well plate, 16-24 hours at 37° C. The format is cell-based. On the procedure: as §1

Structures are written as SMILES.

On to `Cc1ccc(C(C)C)c(O)c1` [Thymol, thymol], for which the minimal inhibitory concentration (MIC) – broadly, the lowest concentration found to suppress growth – in the assay with E. coli turned out to be 125 µg/mL.
As to `CC(C)c1c(O)ccc2c1CC[C@H]1C(C)(C)CCC[C@]21C` [Totarol, totarol], the MIC in the assay on E. coli was 125 µg/mL; in the assay on S. aureus, 31.2 µg/mL.
